Tests used:
[1] = biological target: T1, sodium ion channel of Trpm5 bitter receptor (Mus musculus, UniProt Q9JJH7); assay: Immunofluorescence experiment of sodium ion channels in mouse tongue cells stimulated with bitter agent; format: cell-based, mice
T1 construct: Put the removed tongue in a 2 ml EP tube, add 1-1.5 ml of 0.25% trypsin solution; from tissue; host or cells: cells dissociated with trypsin from mouse tongue
T1 sequence (Q9JJH7 1-1158): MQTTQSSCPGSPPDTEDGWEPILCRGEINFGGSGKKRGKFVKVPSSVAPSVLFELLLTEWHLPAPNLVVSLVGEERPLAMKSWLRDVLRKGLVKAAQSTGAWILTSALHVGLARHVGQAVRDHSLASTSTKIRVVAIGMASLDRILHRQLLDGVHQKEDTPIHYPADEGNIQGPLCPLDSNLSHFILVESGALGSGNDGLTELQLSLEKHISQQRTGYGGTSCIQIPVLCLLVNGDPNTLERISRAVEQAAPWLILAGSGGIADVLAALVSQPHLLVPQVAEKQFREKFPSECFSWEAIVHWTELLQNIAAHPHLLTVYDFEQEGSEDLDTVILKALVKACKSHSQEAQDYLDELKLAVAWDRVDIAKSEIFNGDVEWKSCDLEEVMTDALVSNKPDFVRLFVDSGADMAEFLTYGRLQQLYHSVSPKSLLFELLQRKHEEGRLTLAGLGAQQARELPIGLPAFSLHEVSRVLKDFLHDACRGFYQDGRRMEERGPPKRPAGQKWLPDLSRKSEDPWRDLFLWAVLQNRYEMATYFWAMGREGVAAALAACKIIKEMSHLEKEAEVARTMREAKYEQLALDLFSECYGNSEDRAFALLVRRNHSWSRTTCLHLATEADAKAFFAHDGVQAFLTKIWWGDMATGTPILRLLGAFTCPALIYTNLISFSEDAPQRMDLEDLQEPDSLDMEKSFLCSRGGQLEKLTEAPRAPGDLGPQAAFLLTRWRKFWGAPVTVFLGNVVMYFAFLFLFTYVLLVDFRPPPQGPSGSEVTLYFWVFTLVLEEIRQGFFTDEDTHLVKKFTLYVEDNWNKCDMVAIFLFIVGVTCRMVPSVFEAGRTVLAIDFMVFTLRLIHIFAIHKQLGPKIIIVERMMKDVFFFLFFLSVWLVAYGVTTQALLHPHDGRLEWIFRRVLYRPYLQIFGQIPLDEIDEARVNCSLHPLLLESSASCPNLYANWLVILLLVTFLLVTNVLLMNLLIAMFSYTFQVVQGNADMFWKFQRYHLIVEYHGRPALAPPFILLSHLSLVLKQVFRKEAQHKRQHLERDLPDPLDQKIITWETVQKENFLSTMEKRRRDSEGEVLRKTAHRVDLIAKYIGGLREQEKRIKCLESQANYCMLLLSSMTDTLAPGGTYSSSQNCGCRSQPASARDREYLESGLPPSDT
Protocol: The mouse was killed by dislocation, and the tongue was removed (minimizing tongue bleeding), disinfected with alcohol for 2 minutes (adding sodium citrate for anticoagulation), and washed with D-Hanks solution or rinsed with 10 ml of saline solution drawn by a syringe.
Take out the centrifuge tube from the constant temperature incubator, shake for 2 minutes, blow the undigested tongue several times with the gun tip, take out the tongue, cover it with the EP tube cap, put it in a centrifuge, centrifuge at 3000 rpm for 3 minutes, discard the supernatant, add cell culture medium (containing 10% inactivated serum), blow and disperse the cells, and place it in a 37° C. constant temperature incubator for 30 min to allow the cells to recover.
(1) Take out the prepared ENG-2 AM storage solution and warm it to room temperature for use, keeping it away from light. The concentration of the pre-prepared stock solution is 2 mM and it is stored at −18° C. for future use.
(2) Dilute the ENG-2 AM+DMSO stock solution to a […] working solution using serum-free culture medium.
(3) Load the probe in a serum-free culture medium containing an appropriate concentration of AM probe.
Take out the cells from the incubator, centrifuge, and discard the culture medium. Wash the cells once with D-Hanks solution, centrifuge, and discard the culture medium. Add 1 ml of culture medium again, then add 300 ul of sodium ion probe dilution solution, blow and disperse the cells, and incubate the cells at room temperature or 37° C. for 1 hour.
At the end of incubation, centrifuge at 100 rpm for 2 minutes, discard the supernatant, add 500 ul of cell culture medium without AM probe, blow and disperse the cells, and incubate for 20-60 min to ensure that the cells completely deesterify the AM group.
(4) Take 10 ul of incubation solution and drop it into the center of the cell counting plate, cover it with a slide, and observe it under a fluorescence microscope.
(5) Use a low-power microscope to find the cells, open the fluorescence path, detect the fluorescence signal with a fluorescence microscope, change to a high-power microscope, find the appropriate observation cells, observe and take pictures to record the initial signal.
(2) Experimental drugs: Add 5 ul of the tested drug to one side of the cover glass on the cell counting plate, use absorbent paper to absorb water on the opposite side, let the solution soak the cells, and then use a fluorescence microscope to observe and take 3-5 photos, one every 1-2 minutes; then add 5 ul of the standard bitter drug to one side of the cover glass on the cell counting plate, use absorbent paper to absorb water on the opposite side, let the solution soak the cells, and then use a fluorescence microscope to observe and take 3-5 photos, one every 1-2 minutes.
(5) Data analysis: Use Image J-Fiji software to analyze the images, compare the average values of the fluorescence pixels, remove the base number and compare them in the table, draw FIGS. 4-6, and use SPSS18.0 to perform chi-square tests to compare the differences between the data groups.

TRPM5 = biological target: T2, TRPM5 (Mus musculus, UniProt Q9JJH7); details: TPPO 5 μM; cited from earlier work
T2 construct: host or cells: mouse taste cells
T2 sequence (Q9JJH7 1-1158): T1 sequence (Q9JJH7 1-1158)

[2] = Bitterant 60 s (2% metronidazole solution)
[3] = Bitterant 120 s (2% metronidazole solution)
[4] = Bitterant 180 s (2% metronidazole solution)

average value of fluorescence brightness ([1]; Addition of drugs): 88.789
average value of fluorescence brightness, base number removed ([1]; Addition of drugs): −0.243
average value of fluorescence brightness [1, 2]: 88.608
average value of fluorescence brightness, base number removed [1, 2]: −0.308
average value of fluorescence brightness [1, 3]: 88.598
average value of fluorescence brightness, base number removed [1, 3]: −1.322
average value of fluorescence brightness [1, 4]: 88.583
average value of fluorescence brightness, base number removed [1, 4]: −1.384
average value of fluorescence brightness, base number removed ([1]; Initial): 0
average value of fluorescence brightness ([1]; Initial (before addition of drug), sodium ion dye ENG-2 AM): 88.898
blocking effect on the sodium ion channel (result analysis in words) ([1]; judged from change of sodium ion fluorescence after bitter drug): sodium ion channel is blocked
Compound: O=P(c1ccccc1)(c1ccccc1)c1ccccc1 [Triphenylphosphine oxide, reference compound]
remaining taste-evoked Na^+ responses (TRPM5): abolished

Reference: patent US20250108023A1, “Products for Masking Bitterness” (The Third People's Hospital of Henan Province, priority 2023, published 2025)
